Columns and labels:
[1] = molecular target: T1, human mGluR2 receptor (Homo sapiens, UniProt Q14416); test: [35S]GTPγS binding assay, hmGluR2 PAM (membranes from transfected CHO cells, glutamate at EC20); assay type: biochemical; conditions: for EC50: in presence of mGluR2 agonist glutamate at a predetermined EC20 concentration, pEC50 = -log EC50 (M), at least 8 concentrations; for Emax / GTPγS - hmGluR2 PAM Emax: relative maximal effect (maximal % effect relative to the control glutamate response), glutamate at EC20
T1 construct: expressed in transfected cells; host or cells: CHO cells (membrane preparation)
Source text: The compounds provided in the present invention are positive allosteric modulators of mGluR2. These compounds appear to potentiate glutamate responses by binding to an allosteric site other than the glutamate binding site. The response of mGluR2 to a concentration of glutamate is increased when compounds of Formula (I) are present. Compounds of Formula (I) are expected to have their effect substantially at mGluR2 by virtue of their ability to enhance the function of the receptor. The effects of positive allosteric modulators tested at mGluR2 using the [^35S]GTPγS binding assay method described below and which is suitable for the identification of such compounds, and more particularly the compounds according to Formula (I), are shown in Table 3.
The [^35S]GTPγS binding assay is a functional membrane-based assay used to study G-protein coupled receptor (GPCR) function whereby incorporation of a non-hydrolysable form of GTP, [^35S]GTPγS (guanosine 5′-triphosphate, labelled with […] ^35S), is measured. The G-protein a subunit catalyzes the exchange of guanosine 5′-diphosphate (GDP) by guanosine triphosphate (GTP) and on activation of the GPCR by an agonist, [^35S]GTPγS, becomes incorporated and cannot be cleaved to continue the exchange cycle (Harper (1998) Current Protocols in Pharmacology 2.6.1-10, John Wiley & Sons, Inc.). […] Here we describe the use of the [^35S]GTPγS binding assay using membranes from cells transfected with the human mGluR2 receptor and adapted from Schaffhauser et al. ((2003) Molecular Pharmacology 4:798-810) for the detection of the positive allosteric modulation (PAM) properties of the compounds of this invention.
CHO-cells were cultured to pre-confluence and stimulated with 5 mM butyrate for 24 h. Cells were then collected by scraping in PBS and cell suspension was centrifuged (10 min at 4000 RPM in benchtop centrifuge). Supernatant was discarded and pellet gently resuspended in 50 mM Tris-HCl, pH 7.4 by mixing with a vortex and pipetting up and down. The suspension was centrifuged at 16,000 RPM (Sorvall RC-5C plus rotor SS-34) for 10 minutes and the supernatant discarded. The pellet was homogenized in 5 mM Tris-HCl, pH 7.4 using an ultra-turrax homogenizer and centrifuged again (18,000 RPM, 20 min, 4° C.). The final pellet was resuspended in 50 mM Tris-HCl, pH 7.4 and stored at −80° C. in appropriate aliquots before use. Protein concentration was determined by the Bradford method (Bio-Rad, USA) with bovine serum albumin as standard.
Measurement of mGluR2 positive allosteric modulatory activity of test compounds was performed as follows. Test compounds and glutamate were diluted in assay buffer containing 10 mM HEPES acid, 10 mM HEPES salt, pH 7.4, 100 mM NaCl, 3 mM MgCl2 and 10 μM GDP. Human mGlu2 receptor-containing membranes were thawed on ice and diluted in assay buffer supplemented with 14 μg/ml saponin. Membranes were pre-incubated with compound alone or together with a predefined (˜EC20) concentration of glutamate (PAM assay) for 30 min at 30° C. After addition of [^35S]GTPγS (f.c. 0.1 nM), assay mixtures were shaken briefly and further incubated to allow [^35S]GTPγS incorporation on activation (30 minutes, 30° C.). Final assay mixtures contained 7 μg of membrane protein in 10 mM HEPES acid, 10 mM HEPES salt, pH 7.4, 100 mM NaCl, 3 mM MgCl2, 10 μM GDP and 10 μg/ml saponin. Total reaction volume was 200 μl. Reactions were terminated by rapid filtration through Unifilter-96 GF/B plates (Perkin Elmer, Massachusetts, USA) using a 96-well filtermate universal harvester. Filters were washed 6 times with ice-cold 10 mM NaH2PO4/10 mM Na2HPO4, pH 7.4. Filters were then air-dried, and 40 μl of liquid scintillation cocktail (Microscint-O) was added to each well. Membrane-bound radioactivity was counted in a Microplate Scintillation and Luminescence Counter from Perkin Elmer. […]

T1 sequence (Q14416 19-872): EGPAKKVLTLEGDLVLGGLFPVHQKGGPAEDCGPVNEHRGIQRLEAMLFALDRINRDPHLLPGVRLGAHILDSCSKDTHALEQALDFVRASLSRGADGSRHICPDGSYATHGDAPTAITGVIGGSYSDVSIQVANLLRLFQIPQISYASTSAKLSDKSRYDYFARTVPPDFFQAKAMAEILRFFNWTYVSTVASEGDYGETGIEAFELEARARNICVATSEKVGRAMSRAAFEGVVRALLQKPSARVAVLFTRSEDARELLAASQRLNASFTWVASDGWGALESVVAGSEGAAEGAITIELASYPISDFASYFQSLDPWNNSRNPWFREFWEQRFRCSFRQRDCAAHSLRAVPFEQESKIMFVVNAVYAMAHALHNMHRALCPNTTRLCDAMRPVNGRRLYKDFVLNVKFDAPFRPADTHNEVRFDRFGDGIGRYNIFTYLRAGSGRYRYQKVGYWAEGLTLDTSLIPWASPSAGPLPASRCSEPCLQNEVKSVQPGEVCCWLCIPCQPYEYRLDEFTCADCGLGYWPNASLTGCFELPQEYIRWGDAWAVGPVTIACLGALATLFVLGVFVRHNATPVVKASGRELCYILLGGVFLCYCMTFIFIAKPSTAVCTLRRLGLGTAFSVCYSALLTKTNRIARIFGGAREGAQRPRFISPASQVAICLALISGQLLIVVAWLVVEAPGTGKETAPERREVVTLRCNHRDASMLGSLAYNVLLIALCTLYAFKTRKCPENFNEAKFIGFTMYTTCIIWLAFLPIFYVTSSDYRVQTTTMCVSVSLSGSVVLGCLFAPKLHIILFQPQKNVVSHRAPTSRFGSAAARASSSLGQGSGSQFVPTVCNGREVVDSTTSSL

EC50 [1] [M]	Emax [1] [%]	GTPγS - hmGluR2 PAM Emax [1] [%]	melting point [°C]	Structure (SMILES)
4.27e-07	136			FC(F)(F)c1c(CN2CCOC[C@@H]2c2ccccc2)ccn2c(CC3CC3)nnc12 [Compound 2, 3-(Cyclopropylmethyl)-7-[[(3S)-3-phenyl-4-morpholinyl]methyl]-8-(trifluoromethyl)-1,2,4-triazolo[4,3-c]pyridine]
2e-07		101		CC1(c2ccc(F)cc2F)COCCN1Cc1ccn2c(CC3CC3)nnc2c1C(F)(F)F (single isomer, unassigned) [Compound 5a, 3-(Cyclopropylmethyl)-7-{[(3*R)-3-(2,4-difluorophenyl)-3-methylmorpholin-4-yl]methyl}-8-(trifluoromethyl)[1,2,4]triazolo[4,3-a]pyridine]
1.82e-07		108		CC1(c2ccccc2F)COCCN1Cc1ccn2c(CC3CC3)nnc2c1C(F)(F)F (single isomer, unassigned) [Compound 4a, 3-(Cyclopropylmethyl)-7-{[(3*R)-3-(2-fluorophenyl)-3-methylmorpholin-4-yl]methyl}-8-(trifluoromethyl)[1,2,4]triazolo[4,3-a]pyridine]
1.7e-07	238		69.2	FC(F)(F)c1c(CN2CCOC[C@H]2c2ccccc2)ccn2c(CC3CC3)nnc12 [Compound 1, 3-(Cyclopropylmethyl)-7-[[(3R)-3-phenyl-4-morpholinyl]methyl]-8-(trifluoromethyl)-1,2,4-triazolo[4,3-c]pyridine]
1.38e-07		126		CC1(c2ccc(F)cc2F)COCCN1Cc1ccn2c(CC3CC3)nnc2c1C(F)(F)F (single isomer, unassigned) [Compound 5b, 3-(Cyclopropylmethyl)-7-{[(3*S)-3-(2,4-difluorophenyl)-3-methylmorpholin-4-yl]methyl}-8-(trifluoromethyl)[1,2,4]triazolo[4,3-a]pyridine]
1.95e-07		52		CC1(c2ccccc2F)COCCN1Cc1ccn2c(CC3CC3)nnc2c1C(F)(F)F (single isomer, unassigned) [Compound 4b, 3-(Cyclopropylmethyl)-7-{[(3*S)-3-(2-fluorophenyl)-3-methylmorpholin-4-yl]methyl}-8-(trifluoromethyl)[1,2,4]triazolo[4,3-a]pyridine]
